In patent publication US20200385371A1 (Propellon Therapeutics Inc., priority 2017, published 2020):
pEC50, pIC50, pKd: −log10 of the molar value.

Assays:
[1] = biological target: T1, WDR5 (Homo sapiens, UniProt P61964); test: Fluorescence Polarization (FP) binding assay
Summary of the method: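 Buffer was pH 6.5 sodium phosphate (80 mM) with 20 mM KCl and 0.008% Triton X-100; 9-Ala-FAM probe at 20 nM used 0.05 μM WDR5 and 480/540 nm polarization, H3 (1-15) probe at 30 nM used 0.3 μM WDR5 and 485/528 nm. Quadruplicate data were hyperbola-fitted to give Kdisp.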

[2] = system: MV4-11 cells; test: Cell proliferation assay (ATPlite); type: cell-based; settings: Homo sapiens, 120 h; MV4-11 cells, five days; read-out: GI MV411 EC50
Summary of the method: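 ATPlite luminescence after five days' culture (37° C, 5% CO2) gives viability. Compounds dosed in 10 concentrations up to 10 μM against DMSO; 1,000 cells/well seeded in Alpha-MEM/10% FBS.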

[3] = biological target: T1, WDR5; test: Surface Plasmon Resonance (SPR) assay; type: binding; set-up: Full length WDR5 with an N-terminal His tag and C-terminal AviTag; His tag (N); made in house; host or cells: E. coli; settings: read-out: SPR Kd
Summary of the method: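 Full-length biotinylated WDR5 (N-His, C-AviTag, E. coli) captured (~3000 RU) on streptavidin SA chip; Biacore T200. HBS-EP pH 7.4 plus 5% DMSO running buffer, 40 μl/min.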

SMILES | pIC50 [1] | pEC50 [2] | pKd [3]
C[C@@H]1CN(c2cc(F)c(C3=CCN(c4ncc(F)cn4)C3)c(F)c2NC(=O)c2c[nH]c(=O)cc2C(F)(F)F)C[C@H](C)N1C [Example 147, N-(2,4-difluoro-3-(1-(5-fluoropyrimidin-2-yl)-2,5-dihydro-1H-pyrrol-3-yl)-6-((3S,5R)-3,4,5-trimethylpiperazin-1-yl)phenyl)-6-oxo-4-(trifluoromethyl)-1,6-dihydropyridine-3-carboxamide] | 7.71 | 7.42 | 9.15
COc1cnc(N2CC=C(c3c(F)cc(N4CCN(C)[C@@H](C)C4)c(NC(=O)c4c[nH]c(=O)cc4C(F)F)c3F)CC2)nc1 [Example 48, (S)-4-(difluoromethyl)-N-(6-(3,4-dimethylpiperazin-1-yl)-2,4-difluoro-3-(1-(5-methoxypyrimidin-2-yl)-1,2,3,6-tetrahydropyridin-4-yl)phenyl)-6-oxo-1,6-dihydropyridine-3-carboxamide] | 7.65 | 6.57 | 8.83
C[C@@H]1CN(c2ccc(-c3c(F)cc(N4CCN(C)[C@@H](C)C4)c(NC(=O)c4cn(C)c(=O)cc4C(F)F)c3F)cn2)C[C@H](C)O1 [Example 175, 4-(Difluoromethyl)-N-(3-(6-((2S,6R)-2,6-dimethylmorpholino)pyridin-3-yl)-6-((S)-3,4-dimethylpiperazin-1-yl)-2,4-difluorophenyl)-1-methyl-6-oxo-1,6-dihydropyridine-3-carboxamide] | 7.61 | 6.59 | 8.80
C[C@@H]1CN(c2ccc(-c3c(F)cc(N4CCN(C)[C@@H](C)C4)c(NC(=O)c4c[nH]c(=O)cc4C(F)F)c3F)cn2)CCO1 [Example 181, 4-(Difluoromethyl)-N-(6-((S)-3,4-dimethylpiperazin-1-yl)-2,4-difluoro-3-(6-((R)-2-methylmorpholino)pyridin-3-yl)phenyl)-6-oxo-1,6-dihydropyridine-3-carboxamide] | 7.61 | 7.52 | 9.19
C[C@H]1CN(c2cc(F)c(C3=CCCN(c4ncc(F)cn4)C3)c(F)c2NC(=O)c2c[nH]c(=O)cc2C(F)F)CCN1C [Example 83, (S)-4-(difluoromethyl)-N-(6-(3,4-dimethylpiperazin-1-yl)-2,4-difluoro-3-(1-(5-fluoropyrimidin-2-yl)-1,2,5,6-tetrahydropyridin-3-yl)phenyl)-6-oxo-1,6-dihydropyridine-3-carboxamide] | 7.81 | 6.42 | 8.94
C[C@H]1CN(c2cc(F)c(C3=CCCN(c4ncc(F)cn4)C3)c(F)c2NC(=O)c2c[nH]c(=O)cc2C(F)(F)F)CCN1C [Example 84, (S)—N-(6-(3,4-dimethylpiperazin-1-yl)-2,4-difluoro-3-(1-(5-fluoropyrimidin-2-yl)-1,2,5,6-tetrahydropyridin-3-yl)phenyl)-6-oxo-4-(trifluoromethyl)-1,6-dihydropyridine-3-carboxamide] | 7.78 | 6.79 | 8.84
C[C@H]1CN(c2cc(F)c(C3=CCCN(C(=O)OC4CC(F)(F)C4)C3)c(F)c2NC(=O)c2c[nH]c(=O)cc2C(F)F)CCN1C [Example 43, 3,3-Difluorocyclobutyl (S)-5-(3-(4-(difluoromethyl)-6-oxo-1,6-dihydropyridine-3-carboxamido)-4-(3,4-dimethylpiperazin-1-yl)-2,6-difluorophenyl)-3,6-dihydropyridine-1(2H)-carboxylate] | 7.80 | 6.19 | 8.77
C[C@H]1CN(c2ccc(-c3c(F)cc(N4CCN(C)[C@@H](C)C4)c(NC(=O)c4ccc(F)cc4C(F)F)c3F)cn2)CCO1 [Example 179, 2-(Difluoromethyl)-N-(6-((S)-3,4-dimethylpiperazin-1-yl)-2,4-difluoro-3-(6-((S)-2-methylmorpholino)pyridin-3-yl)phenyl)-4-fluorobenzamide] | 7.70 | 6.85 | 8.80

Compounds with a higher pIC50 [1], results first:

pIC50 [1] | pEC50 [2] | pKd [3] | SMILES
7.87 | 6.77 | 9.09 | C[C@@H]1CN(c2ncc(-c3c(F)cc(N4CCN(C)[C@@H](C)C4)c(NC(=O)c4cn(C)c(=O)cc4C(F)(F)F)c3F)cn2)C[C@@H](C)O1 [Example 165, N-(3-(2-((2R,6R)-2,6-dimethylmorpholino)pyrimidin-5-yl)-6-((S)-3,4-dimethylpiperazin-1-yl)-2,4-difluorophenyl)-1-methyl-6-oxo-4-(trifluoromethyl)-1,6-dihydropyridine-3-carboxamide]
8.06 | 7.87 | 9.47 | C[C@@H]1CN(c2ncc(-c3c(F)cc(N4CCN(C)[C@@H](C)C4)c(NC(=O)c4c[nH]c(=O)cc4C(F)F)c3F)cn2)CCO1 [Example 129, 4-(Difluoromethyl)-N-(6-((S)-3,4-dimethylpiperazin-1-yl)-2,4-difluoro-3-(2-((R)-2-methylmorpholino)pyrimidin-5-yl)phenyl)-6-oxo-1,6-dihydropyridine-3-carboxamide]
7.84 | 7.60 | 8.67 | C[C@@H]1CN(c2ccc(-c3c(F)cc(N4C[C@@H](C)N(C)[C@@H](C)C4)c(NC(=O)c4c[nH]c(=O)cc4C(F)(F)F)c3F)cn2)C[C@H](C)O1 [Example 62, N-(3-(6-((2S,6R)-2,6-dimethylmorpholino)pyridin-3-yl)-2,4-difluoro-6-((3S,5R)-3,4,5-trimethylpiperazin-1-yl)phenyl)-6-oxo-4-(trifluoromethyl)-1,6-dihydropyridine-3-carboxamide]
7.82 | 7.46 | 8.62 | C[C@H]1CN(c2cc(F)c(C3=CCN(c4ccnc(C#N)n4)CC3)c(F)c2NC(=O)c2c[nH]c(=O)cc2C(F)(F)F)CCN1C [Example 112, (S)—N-(3-(1-(2-cyanopyrimidin-4-yl)-1,2,3,6-tetrahydropyridin-4-yl)-6-(3,4-dimethylpiperazin-1-yl)-2,4-difluorophenyl)-6-oxo-4-(trifluoromethyl)-1,6-dihydropyridine-3-carboxamide]
7.84 | 7.51 | 8.85 | COc1cc(N2CC=C(c3c(F)cc(N4C[C@@H](C)N(C)[C@@H](C)C4)c(NC(=O)c4c[nH]c(=O)cc4C(F)(F)F)c3F)CC2)ncn1 [Example 140, N-(2,4-difluoro-3-(1-(6-methoxypyrimidin-4-yl)-1,2,3,6-tetrahydropyridin-4-yl)-6-((3S,5R)-3,4,5-trimethylpiperazin-1-yl)phenyl)-6-oxo-4-(trifluoromethyl)-1,6-dihydropyridine-3-carboxamide]
7.93 | 7.71 | 9.16 | C[C@@H]1CN(c2cc(F)c(-c3cnc(N4CCO[C@@H](C)C4)nc3)c(F)c2NC(=O)c2c[nH]c(=O)cc2C(F)F)C[C@H](C)N1C [Example 125, N-(2,4-difluoro-3-(2-((S)-2-methylmorpholino)pyrimidin-5-yl)-6-((3S,5R)-3,4,5-trimethylpiperazin-1-yl)phenyl)-4-(difluoromethyl)-6-oxo-1,6-dihydropyridine-3-carboxamide]
7.88 | 6.33 | 8.60 | Cc1nc(C(=O)N2CCC=C(c3c(F)cc(N4C[C@@H](C)N(C)[C@@H](C)C4)c(NC(=O)c4c[nH]c(=O)cc4C(F)(F)F)c3F)C2)cs1 [Example 188, N-(2,4-difluoro-3-(1-(2-methylthiazole-4-carbonyl)-1,2,5,6-tetrahydropyridin-3-yl)-6-((3S,5R)-3,4,5-trimethylpiperazin-1-yl)phenyl)-6-oxo-4-(trifluoromethyl)-1,6-dihydropyridine-3-carboxamide]
